From PubChem BioAssay (NCI)
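1) Cells in 96-well plates. 2) Compound, 48 h, 5 concentrations. 3) Linear interpolation between surrounding doses. 4) Unreached endpoint = highest concentration. TGI: concentration producing complete growth inhibition.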

Tests used:
Test in all cases: NCI tumour cell line growth inhibition, 48 h
SF-295 CNS = test system: SF-295 CNS
HOP-62 NSCLC = test system: HOP-62 NSCLC
RXF-631 renal = test system: RXF-631 renal
HCC-2998 colon = test system: HCC-2998 colon
HCT-116 colon = test system: HCT-116 colon
SW-620 colon = test system: SW-620 colon
MALME-3M melanoma = test system: MALME-3M melanoma
HT29 colon = test system: HT29 colon
ACHN renal = test system: ACHN renal
OVCAR-3 ovarian = test system: OVCAR-3 ovarian
SK-MEL-2 melanoma = test system: SK-MEL-2 melanoma
EKVX NSCLC = test system: EKVX NSCLC
SF-268 CNS = test system: SF-268 CNS
SK-MEL-28 melanoma = test system: SK-MEL-28 melanoma
SNB-78 CNS = test system: SNB-78 CNS
UO-31 renal = test system: UO-31 renal
NCI-H23 lung = test system: NCI-H23 lung
RXF 393 renal = test system: RXF 393 renal
HCT-15 colon = test system: HCT-15 colon
NCI-H522 lung = test system: NCI-H522 lung
HL-60(TB) leukemia = test system: HL-60(TB) leukemia
MOLT-4 leukemia = test system: MOLT-4 leukemia
OVCAR-4 ovarian = test system: OVCAR-4 ovarian
RPMI-8226 leukemia = test system: RPMI-8226 leukemia
XF 498 CNS = test system: XF 498 CNS
SN12C renal = test system: SN12C renal
UACC-62 melanoma = test system: UACC-62 melanoma
IGROV1 ovarian = test system: IGROV1 ovarian
SK-MEL-5 melanoma = test system: SK-MEL-5 melanoma
A549 NSCLC = test system: A549 NSCLC
DLD-1 colon = test system: DLD-1 colon
LXFL 529 NSCLC = test system: LXFL 529 NSCLC
SNB-75 CNS = test system: SNB-75 CNS
CAKI-1 renal = test system: CAKI-1 renal
786-0 renal = test system: 786-0 renal
A498 renal = test system: A498 renal
OVCAR-5 ovarian = test system: OVCAR-5 ovarian
TK-10 renal = test system: TK-10 renal
U251 CNS = test system: U251 CNS
CCRF-CEM leukemia = test system: CCRF-CEM leukemia
DMS 273 small cell lung = test system: DMS 273 small cell lung
KM12 colon = test system: KM12 colon
K-562 leukemia = test system: K-562 leukemia
LOX IMVI melanoma = test system: LOX IMVI melanoma
OVCAR-8 ovarian = test system: OVCAR-8 ovarian
UACC-257 melanoma = test system: UACC-257 melanoma
SF-539 CNS = test system: SF-539 CNS
M14 melanoma = test system: M14 melanoma
NCI-H460 lung = test system: NCI-H460 lung
MDA-MB-231 breast = test system: MDA-MB-231 breast
DU-145 prostate = test system: DU-145 prostate
MDA-N = test system: MDA-N
HS 578T breast = test system: HS 578T breast
HOP-18 NSCLC = test system: HOP-18 NSCLC
SR leukemia = test system: SR leukemia
MDA-MB-435 = test system: MDA-MB-435
SNB-19 CNS = test system: SNB-19 CNS
T-47D breast = test system: T-47D breast
HOP-92 NSCLC = test system: HOP-92 NSCLC
NCI/ADR-RES ovarian = test system: NCI/ADR-RES ovarian
BT-549 breast = test system: BT-549 breast
KM20L2 colon = test system: KM20L2 colon
DMS 114 small cell lung = test system: DMS 114 small cell lung
NCI-H226 lung = test system: NCI-H226 lung
SK-OV-3 ovarian = test system: SK-OV-3 ovarian
PC-3 prostate = test system: PC-3 prostate
COLO 205 colon = test system: COLO 205 colon
MCF7 breast = test system: MCF7 breast
M19-MEL melanoma = test system: M19-MEL melanoma

SMILES: CC12CCCCC1C(=O)C2(Cl)Cl (centres undefined)
- TGI (SF-295 CNS): 3.38 µM
- TGI (HOP-62 NSCLC): 4.92 µM
- TGI (RXF-631 renal): 5 µM
- TGI (HCC-2998 colon): 4.22 µM
- TGI (HCT-116 colon): 3.51 µM
- TGI (SW-620 colon): 4.47 µM
- TGI (MALME-3M melanoma): 4.19 µM
- TGI (HT29 colon): 3.06 µM
- TGI (ACHN renal): 5.91 µM
- TGI (OVCAR-3 ovarian): 3.58 µM
- TGI (SK-MEL-2 melanoma): 4.41 µM
- TGI (EKVX NSCLC): 11 µM
- TGI (SF-268 CNS): 14.6 µM
- TGI (SK-MEL-28 melanoma): 4.18 µM
- TGI (SNB-78 CNS): 17.9 µM
- TGI (UO-31 renal): 5.23 µM
- TGI (NCI-H23 lung): 8.59 µM
- TGI (RXF 393 renal): 14.3 µM
- TGI (HCT-15 colon): 11.3 µM
- TGI (NCI-H522 lung): 4.61 µM
- TGI (HL-60(TB) leukemia): 3.88 µM
- TGI (MOLT-4 leukemia): 5.44 µM
- TGI (OVCAR-4 ovarian): 12.5 µM
- TGI (RPMI-8226 leukemia): 3.79 µM
- TGI (XF 498 CNS): 4.19 µM
- TGI (SN12C renal): 12.3 µM
- TGI (UACC-62 melanoma): 6.09 µM
- TGI (IGROV1 ovarian): 9.95 µM
- TGI (SK-MEL-5 melanoma): 3.82 µM
- TGI (A549 NSCLC): 11.2 µM
- TGI (DLD-1 colon): 6.22 µM
- TGI (LXFL 529 NSCLC): 6 µM
- TGI (SNB-75 CNS): 18.3 µM
- TGI (CAKI-1 renal): 10.1 µM
- TGI (786-0 renal): 4.73 µM
- TGI (A498 renal): 12.7 µM
- TGI (OVCAR-5 ovarian): 8.96 µM
- TGI (TK-10 renal): 11.3 µM
- TGI (U251 CNS): 5.56 µM
- TGI (CCRF-CEM leukemia): 5.45 µM
- TGI (DMS 273 small cell lung): 5.4 µM
- TGI (KM12 colon): 4.97 µM
- TGI (K-562 leukemia): 4.37 µM
- TGI (LOX IMVI melanoma): 6.1 µM
- TGI (OVCAR-8 ovarian): 5.16 µM
- TGI (UACC-257 melanoma): 5.63 µM
- TGI (SF-539 CNS): 5.18 µM
- TGI (M14 melanoma): 5.32 µM
- TGI (NCI-H460 lung): 6.37 µM

SMILES: O=C(CSc1ncnc2nc[nH]c12)c1ccccc1
- TGI (SF-295 CNS): > 100 µM
- TGI (MDA-MB-231 breast): > 100 µM
- TGI (DU-145 prostate): > 100 µM
- TGI (HOP-62 NSCLC): > 100 µM
- TGI (MDA-N): > 100 µM
- TGI (HS 578T breast): > 100 µM
- TGI (HCT-116 colon): > 100 µM
- TGI (SW-620 colon): > 100 µM
- TGI (HOP-18 NSCLC): > 100 µM
- TGI (SR leukemia): > 100 µM
- TGI (MDA-MB-435): > 100 µM
- TGI (MALME-3M melanoma): > 100 µM
- TGI (SNB-19 CNS): > 100 µM
- TGI (T-47D breast): > 100 µM
- TGI (HT29 colon): > 100 µM
- TGI (ACHN renal): > 100 µM
- TGI (OVCAR-3 ovarian): > 100 µM
- TGI (SK-MEL-2 melanoma): > 57.8 µM
- TGI (EKVX NSCLC): > 100 µM
- TGI (SF-268 CNS): > 100 µM
- TGI (SK-MEL-28 melanoma): > 100 µM
- TGI (SNB-78 CNS): > 100 µM
- TGI (UO-31 renal): > 100 µM
- TGI (HOP-92 NSCLC): > 100 µM
- TGI (NCI-H23 lung): > 100 µM
- TGI (RXF 393 renal): > 100 µM
- TGI (NCI/ADR-RES ovarian): > 100 µM
- TGI (HCT-15 colon): > 100 µM
- TGI (NCI-H522 lung): > 100 µM
- TGI (HL-60(TB) leukemia): > 100 µM
- TGI (MOLT-4 leukemia): > 100 µM
- TGI (BT-549 breast): > 100 µM
- TGI (KM20L2 colon): > 100 µM
- TGI (OVCAR-4 ovarian): > 100 µM
- TGI (RPMI-8226 leukemia): > 100 µM
- TGI (DMS 114 small cell lung): > 100 µM
- TGI (NCI-H226 lung): > 100 µM
- TGI (XF 498 CNS): > 100 µM
- TGI (SN12C renal): > 100 µM
- TGI (UACC-62 melanoma): > 100 µM
- TGI (IGROV1 ovarian): > 100 µM
- TGI (SK-MEL-5 melanoma): > 100 µM
- TGI (SK-OV-3 ovarian): > 100 µM
- TGI (A549 NSCLC): > 100 µM
- TGI (DLD-1 colon): > 100 µM
- TGI (LXFL 529 NSCLC): > 100 µM
- TGI (PC-3 prostate): > 100 µM
- TGI (COLO 205 colon): > 100 µM
- TGI (CAKI-1 renal): > 100 µM
- TGI (786-0 renal): > 100 µM
- TGI (A498 renal): > 100 µM
- TGI (OVCAR-5 ovarian): > 100 µM
- TGI (MCF7 breast): > 100 µM
- TGI (TK-10 renal): > 100 µM
- TGI (U251 CNS): > 100 µM
- TGI (CCRF-CEM leukemia): > 100 µM
- TGI (M19-MEL melanoma): > 100 µM
- TGI (DMS 273 small cell lung): > 100 µM
- TGI (KM12 colon): > 57.1 µM
- TGI (K-562 leukemia): > 100 µM
- TGI (LOX IMVI melanoma): > 100 µM
- TGI (OVCAR-8 ovarian): > 100 µM
- TGI (UACC-257 melanoma): > 100 µM
- TGI (SF-539 CNS): > 100 µM
- TGI (M14 melanoma): > 100 µM
- TGI (NCI-H460 lung): > 100 µM

SMILES: N#CCC(=O)N1CCCOCCC1
- TGI (SF-295 CNS): > 100 µM
- TGI (HOP-62 NSCLC): > 100 µM
- TGI (RXF-631 renal): > 100 µM
- TGI (HCC-2998 colon): > 100 µM
- TGI (HCT-116 colon): > 100 µM
- TGI (SW-620 colon): 24.3 µM
- TGI (MALME-3M melanoma): > 100 µM
- TGI (SNB-19 CNS): > 100 µM
- TGI (HT29 colon): > 100 µM
- TGI (ACHN renal): > 100 µM
- TGI (SK-MEL-2 melanoma): > 100 µM
- TGI (EKVX NSCLC): > 100 µM
- TGI (SF-268 CNS): > 100 µM
- TGI (SK-MEL-28 melanoma): > 100 µM
- TGI (SNB-78 CNS): > 100 µM
- TGI (UO-31 renal): > 100 µM
- TGI (NCI-H23 lung): > 100 µM
- TGI (RXF 393 renal): > 100 µM
- TGI (HCT-15 colon): 37.7 µM
- TGI (HL-60(TB) leukemia): > 100 µM
- TGI (MOLT-4 leukemia): 7.36 µM
- TGI (KM20L2 colon): > 100 µM
- TGI (OVCAR-4 ovarian): > 100 µM
- TGI (DMS 114 small cell lung): > 100 µM
- TGI (SN12C renal): > 100 µM
- TGI (UACC-62 melanoma): > 100 µM
- TGI (IGROV1 ovarian): > 100 µM
- TGI (SK-MEL-5 melanoma): > 100 µM
- TGI (SK-OV-3 ovarian): > 100 µM
- TGI (A549 NSCLC): > 100 µM
- TGI (DLD-1 colon): > 100 µM
- TGI (LXFL 529 NSCLC): > 100 µM
- TGI (COLO 205 colon): 42.2 µM
- TGI (CAKI-1 renal): > 100 µM
- TGI (786-0 renal): > 100 µM
- TGI (A498 renal): > 100 µM
- TGI (OVCAR-5 ovarian): > 100 µM
- TGI (TK-10 renal): > 100 µM
- TGI (U251 CNS): > 100 µM
- TGI (CCRF-CEM leukemia): > 100 µM
- TGI (M19-MEL melanoma): > 100 µM
- TGI (DMS 273 small cell lung): > 100 µM
- TGI (KM12 colon): > 100 µM
- TGI (K-562 leukemia): > 100 µM
- TGI (LOX IMVI melanoma): > 100 µM
- TGI (UACC-257 melanoma): > 100 µM
- TGI (SF-539 CNS): > 100 µM
- TGI (M14 melanoma): > 100 µM
- TGI (NCI-H460 lung): > 100 µM
